Assay results as given in patent publication US8476246B2, “Combination of a chemotherapeutic agent and an inhibitor of the TGF-beta system” (Antisense Pharma GmbH, priority 2009, dated 2013).
“Also recorded” adds a separate entry of the source. Where two headings read alike, the source gives them in different places.

Legend:
[1] = tested on: gemcitabine-resistant human bladder cancer cells; settings: cited from earlier work
TGF-beta 2 = TGF-beta 2 secretion of Hup-T3 cells (TGF-beta 2-ELISA of cell supernatants); format: cell-based, human
Procedure: After 7 days of total treatment, cell supernatants were removed and the TGF-beta 2 concentration was analyzed (see Example 4, and FIG. 4).
The effect of gemcitabine on TGF-beta 2 expression and secretion, respectively, was investigated on Hup-T3 cells. Gemcitabine was administered to the Hup-T3 cells in following concentrations: 5 μM, 0.5 μM, 50 nM, 5 nM, 0.5 nM, 0.05 nM or 0 nM, and the cells were incubated for 5 h according to Example 1. The treatment solution was optionally replaced after 3 days.
After 7 days of treatment, cell supernatants were removed for the analysis of TGF-beta 2 concentration. The TGF-beta 2 secretion (Δ) was quantified by a standard TGF-beta 2-ELISA Kit (R&D Systems, Minneapolis, USA) according to the manufacturer's instructions.
In a further experiment the effect of the TGF-beta 2 antisense oligonucleotide on the expression and secretion, respectively, of TGF-beta 2 was investigated on Hup-T3 cells. The TGF-beta 2 antisense oligonucleotide, for example SEQ ID No. 30, was administered to the Hup-T3 cells as described in Example 1 (0 μM, 1 μM, 2.5 μM, 5 μM, 10 μM, 20 μM, 40 μM, 60 μM, or 80 μM TGF-beta 2 antisense oligonucleotide). The cells were incubated according to Example 1 and after 7 days of treatment, the cell supernatants were removed for the analysis of TGF-beta 2 concentration using the TGF-beta 2-ELISA Kit of R&D Systems.
Hup-T3 cells were incubated with different concentrations of gemcitabine (2 μM, 800 nM, 320 nM, 128 nM, 51.2 nM, 20.5 nM, 8.2 nM, and 0 nM) and TGF-beta 2 antisense oligonucleotide according to Example 1 (0 μM (▪), 5 μM (Δ), or 10 μM (•) TGF-beta 2 antisense oligonucleotide) and the cell supernatants were removed after 7 days of treatment for the analysis of TGF-beta 2 concentration using the TGF-beta 2-ELISA Kit of R&D Systems.

Hup-T3 cells = experiment: Proliferation/viability of Hup-T3 cells (EZ4U method); format: cell-based, human; settings: gemcitabine 0.05 nM to 5 μM alone, 7 days, FIG. 2
Procedure: In a 96-well tissue culture plate 4000 cells/well of a human pancreatic tumor cell line Hup-T3 (German Collection of Microorganisms and Cell Cultures GmbH, Braunschweig, Germany) were seeded. The Hup-T3 cell line is not resistant to gemcitabine. One day after seeding, cells were co-treated with […] different gemcitabine concentrations, i.e., 5 μM, 2 μM, 800 nM, 320 nM, 128 nM, 51.2 nM, 20.5 nM, 8.2 nM, 3.3 nM and 0 nM gemcitabine, respectively, in combination with 0 μM (▪), 5 μM (Δ) or 10 μM (∇) TGF-beta 2 antisense oligonucleotide, for example SEQ ID No. 30, for 5 h. […]
The proliferation/viability of the Hup-T3 cells was analyzed using the EZ4U method according to the manufacturer's instructions (Biozol Diagnostca Vertrieb GmbH), and the OD was measured after an incubation time of 75 min with EZ4U solution using the plate reader “Fluostar-Optima” (BMG LABTECH GmbH). […]
The proliferation/viability of the Hup-T3 cells (▪) was analyzed using the EZ4U method according to the manufacturer's instructions (Biozol Diagnostca Vertrieb GmbH), and the OD was measured after an incubation time of 75 min with EZ4U solution using the plate reader “Fluostar-Optima” (BMG LABTECH GmbH).

MEL-Juso cells = experiment: Proliferation/viability of MEL-Juso cells (Cyquant method); format: cell-based, human; settings: 10 μM TGF-beta 2 antisense oligonucleotide in comparison to 0 μM, FIG. 5
Procedure: In a 48-well tissue culture plate 10 000 cells/well of a human melanoma cell line MEL-Juso (CLS—Cell Lines Service, Eppelheim, Germany) were seeded. The MEL-Juso cell line is not resistant to temozolomide. Six hours after seeding, cells were co-treated with eight different temozolomid concentrations, i.e., 200 μM, 100 μM, 50 μM, 25 μM, 12.5 μM, 6.25 μM, 3.125 μM, and 0 μM temozolomide, respectively, in combination with 0 μM (▪), 5 μM (Δ) or 10 μM (∇) TGF-beta 2 antisense oligonucleotide, for example SEQ ID No. 30, for 2 days. Substances (temozolomide and TGF-beta 2 antisense oligonucleotide) were prepared in aqueous solution, stored at 4° C. and were used for 4 weeks. Thereafter the first treatment solution comprising temozolomidee and the TGF-beta 2 antisense oligonucleotide was removed and replaced by a second treatment solution containing the TGF-beta 2 antisense oligonucleotide and temozolomide in the above mentioned concentrations for further 2 days. […]
The proliferation/viability of the MEL-Juso cells was analyzed using the Cyquant method according to the manufacturer's instructions (Invitrogen), and the OD was measured after an incubation time of 60min with Cyquant solutions (detection reagent, direct nucleic acid stain, and direct nucleic acid background suppressor) using the plate reader “Fluostar-Optima” (BMG LABTECH GmbH).

A-172 cells = experiment: Cytotoxicity on A-172 cells (LDH release, CytoToxicity Detection Kit Plus); format: cell-based; settings: combination of temozolomide (200 or 800 μM) and 10 μM antisense oligonucleotide, 5 d
Procedure: A-172 cells (about 7000 cells/well) were seeded into 48-well plates, and 6 h after seeding 0 μM, 200 μM, or 800 μM temozolomide either alone (grey column) or in combination with 10 μM of a TGF-beta 2 antisense oligonuclotide (black column), for example SEQ ID No. 30, was added to the cells. After 2 d of incubation, the treatment solutions were replaced and cells were incubated for additional 3 d (total treatment time: 5 d). […] The cells of the supernatant were lysed by addition of lysis solution for example from the CytoToxicity Detection Kit Plus (Roche Diagnostics GmbH) and the LDH levels were determined for example according to the manual of the kit.

Molecule	IC50 ([1]; gemcitabine-resistant cells chemosensitized with sCLU-2 antisense oligonucleotide) [nM]	IC50 ([1]; gemcitabine-resistant cells, before sCLU-2 antisense oligonucleotide) [nM]	effect of gemcitabine on TGF-beta 2 secretion (TGF-beta 2; gemcitabine 0.05 nM to 5 μM, 7 days, FIG. 2)	effect of gemcitabine on the suppression of TGF-beta 2 secretion by TGF-beta 2 antisense oligonucleotide (TGF-beta 2; gemcitabine 8.2 nM to 2 μM with 5 or 10 μM antisense oligonucleotide, FIG. 4)	effect of gemcitabine on proliferation and viability (Hup-T3 cells)	reduction of the IC50 of temozolomide (cytotoxicity) (MEL-Juso cells)	amount of released LDH (A-172 cells)	effect on TGF-beta 2 secretion in the presence of gemcitabine (TGF-beta 2; 0, 5 or 10 μM antisense oligonucleotide, gemcitabine 8.2 nM to 2 μM, FIG. 4)	effect on TGF-beta 2 secretion (TGF-beta 2; antisense oligonucleotide 1 to 80 μM, no gemcitabine, 7 days, FIG. 3)
Nc1ccn([C@@H]2O[C@H](CO)[C@@H](O)C2(F)F)c(=O)n1 [gemcitabine]	10	100	does not specifically influence the TGF-beta 2 secretion; also recorded: no specific influence	does not impair the suppression of TGF-beta 2 secretion; also recorded: does not affect the inhibitory effect of the antisense oligonucleotide on its target	has a cytotoxic effect; also recorded: decreases at higher gemcitabine concentrations	–	–	–	–
CGGCATGTCTATTTTGTA (listed as DNA, chemistry not given here) [TGF-beta 2 antisense oligonucleotide]	–	–	–	–	–	about 2 ×	significantly increased	inhibited TGF-beta 2 secretion in a dose dependent manner	inhibited the TGF-beta 2 expression and secretion, respectively, in a dose dependent manner; also recorded: dose dependent inhibitory effect
